Laboratory results reported in the NIST ThermoML archive (doi:10.1016/j.jct.2015.08.014).

Assay: xn = mol fraction of the nth substance listed
Settings: 100 kPa, Liquid; for electrical conductivity: Alternating current cell with electrodes; for mass density: Vibrating tube method; for viscosity: Capillary tube (Ostwald / Ubbelohde) method

CCCC[N+]1(C)CCCC1.N#CN=C=[N-] [1-butyl-1-methylpyrrolidinium dicyanamide] + O=C1CCCO1
electrical conductivity [S/m]
Settings	Frequency=0.0005 MHz	Frequency=0.001 MHz	Frequency=0.0015 MHz	Frequency=0.002 MHz	Frequency=0.0025 MHz	Frequency=0.003 MHz	Frequency=0.00347222 MHz	Frequency=0.01 MHz
298.15 K, x1 = 0.1449	–	–	–	–	–	–	–	2.51
298.15 K, x1 = 0.1859	–	–	–	–	–	–	–	2.68
298.15 K, x1 = 0.2493	–	–	–	–	–	–	–	2.614
298.15 K, x1 = 0.3029	–	–	–	–	–	–	–	2.54
298.15 K, x1 = 0.3845	–	–	–	–	–	–	–	2.36
298.15 K, x1 = 0.4985	–	–	–	–	–	–	–	2.08
298.15 K, x1 = 0.6954	–	–	–	–	–	–	–	1.68
298.15 K, x1 = 0.9013	–	–	–	–	–	–	–	1.39
298.15 K, x1 = 1	–	–	–	–	–	–	–	1.318
303.15 K, x1 = 0.0463	1.56	1.57	1.57	1.57	1.57	1.58	1.58	–
303.15 K, x1 = 0.0987	2.36	2.37	2.37	2.38	2.38	2.38	2.38	–
303.15 K, x1 = 0.1449	2.71	2.71	2.71	2.71	2.71	2.71	2.71	–
303.15 K, x1 = 0.1859	2.87	2.88	2.89	2.89	2.89	2.89	2.9	–
303.15 K, x1 = 0.2493	2.85	2.85	2.85	2.85	2.85	2.85	2.85	–
303.15 K, x1 = 0.3029	2.78	2.78	2.78	2.79	2.79	2.79	2.79	–
303.15 K, x1 = 0.3845	2.608	2.612	2.614	2.616	2.616	2.617	2.617	–
303.15 K, x1 = 0.4985	2.33	2.33	2.33	2.33	2.33	2.33	–	–
303.15 K, x1 = 0.6954	1.908	1.909	1.91	1.911	1.911	1.911	–	–
303.15 K, x1 = 0.9013	1.602	1.604	1.605	1.606	1.606	1.607	–	–
303.15 K, x1 = 1	1.525	1.526	1.526	1.527	1.527	1.527	–	–

Settings	electrical conductivity, 303.15 K [S/m]	mass density, 298.15 K [kg/m3]	viscosity, 303.15 K [mPa·s]
x1 = 0.0463	1.58	–	–
x1 = 0.0987	2.38	1103.29	2.56
x1 = 0.1449	2.71	–	–
x1 = 0.1859	2.9	1087.38	3.64
x1 = 0.2493	2.86	–	–
x1 = 0.3029	2.79	1069.77	5.53
x1 = 0.3845	2.619	–	–
x1 = 0.4985	2.33	1047.53	9.91
x1 = 0.6954	1.912	1031.19	16.03
x1 = 0.9013	1.608	1018.43	23.88
x1 = 1	1.527	1013.45	28.53
